Test results published in US20230022745A1, “Methods for Labeling a Population of RNA Molecules” (priority 2013, published 2023).
“Also recorded” adds a separate entry of the source.

Assays:
Assay type in all cases: biochemical
[1] = tested on: Vaccinia Capping Enzyme (VCE)
[2] = tested on: Vaccinia Capping Enzyme (VCE); remark: listed apart in the source
[3] = tested on: 3′ DTB-GTP capped 25mer T7 transcript; settings: 30 minutes at 37° C. in 1× Thermopol Buffer
[4] = tested on: Cap0 or Cap1 25 mer transcript; settings: 5-135 ng protein, 10 minutes at 30° C.

| Molecule | recovery of transcript after streptavidin binding and biotin elution [1] | capping of 5′ triphosphorylated RNA by VCE [2] | other results |
| --- | --- | --- | --- |
| 2′-DBT-TEG-guanosine 5′ triphosphate [2′ DBT-TEG-GTP] | little to no P^32; also recorded: no better than control GTP for recovery |  |  |
| 3′-DBT-TEG-guanosine 5′ triphosphate [3′ DBT-TEG-GTP] | selectively bound to the streptavidin beads and eluted with 10 mM biotin; also recorded: recovered after binding to streptavidin | effectively caps | capping of 5′ diphosphate RNA by VCE [2]: substrate for capping |
| C#CCO[C@H]1[C@@H](O)[C@H](n2cnc3c(=O)[nH]c(N)nc32)O[C@@H]1COP(=O)(O)OP(=O)(O)OP(=O)(O)O [3′ propargyl-GTP, 3′(O-Propargyl) Guanosine 5′ Triphosphate] |  | efficiently incorporated as a modified cap |  |
| [N-]=[N+]=N[C@H]1C[C@H](n2cnc3c(=O)[nH]c(N)nc32)O[C@@H]1COP(=O)(O)OP(=O)(O)OP(=O)(O)O [3′-azido-GTP, 3′-Azido-2′,3′ ddGTP, reference compound] |  | can be capped |  |
| Nc1nc2c(ncn2[C@@H]2O[C@H](COP(=O)(O)OP(=O)(O)OP(=O)(O)O)[C@@H](O)[C@H]2O)c(=O)[nH]1 [GTP, reference compound] | little to no P^32 |  |  |
| RppH (protein, UniProt P0A776 1-176, looked up) RNA pyrophosphohydrolase: MIDDDGYRPNVGIVICNRQGQVMWARRFGQHSWQFPQGGINPGESAEQAMYRELFEEVGLSRKDVRILASTRNWLRYKLPKRLVRWDTKPVCIGQKQKWFLLQLVSGDAEINMQTSSTPEFDGWRWVSYWYPVRQVVSFKRDVYRRVMKEFASVVMSLQENTPKPQNASAYRRKRG |  |  | decapping of DTB-GTP-capped RNA [3]: effectively decaps |
| S. pombe HNT3 protein (protein, UniProt O74859 1-232, looked up) Aprataxin-like protein: MSVHKTNDAFKVLMNSAKEPIVEDIPKKYRKQSFRDNLKVYIESPESYKNVIYYDDDVVLVRDMFPKSKMHLLLMTRDPHLTHVHPLEIMMKHRSLVEKLVSYVQGDLSGLIFDEARNCLSQQLTNEALCNYIKVGFHAGPSMNNLHLHIMTLDHVSPSLKNSAHYISFTSPFFVKIDTPTSNLPTRGTLTSLFQEDLKCWRCGETFGRHFTKLKAHLQEEYDDWLDKSVSM |  |  | decapping of capped RNA [4]: can decap RNA |
